From paper PMC6370745, “Positive Regulation of Spoilage Potential and Biofilm Formation in Shewanella baltica OS155 via Quorum Sensing System Composed of DKP and Orphan LuxRs” (Frontiers in Microbiology, 2019)

Molecular target: T1, LuxR01 (Shewanella baltica, UniProt A3CYS4)
T1 construct: gene Sbal_0102
T1 sequence (A3CYS4 1-175): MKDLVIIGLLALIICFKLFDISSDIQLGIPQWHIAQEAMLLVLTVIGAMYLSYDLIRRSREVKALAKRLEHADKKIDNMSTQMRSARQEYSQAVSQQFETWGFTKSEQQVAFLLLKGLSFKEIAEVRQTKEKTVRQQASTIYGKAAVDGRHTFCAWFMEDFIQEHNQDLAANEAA
Test: FLAG bead pull-down from ligand mixture, UHPLC-MS/MS
Assay type: binding
Details: mixture of C4-HSL, C6-HSL, PL, LL and PP, 1 uM, PBS, 4 °C, 1 h; empty-vector control

## O=C1N[C@@H](Cc2ccccc2)C(=O)N2CCC[C@@H]12 [PP, cyclo-(L-Pro-L-Phe)]
  FLAG bead pull-down from ligand mixture, UHPLC-MS/MS: PP was detected in LuxR01 and LuxR02 protein binding system
